The values that follow come from US9777005B2 (Takeda Pharmaceutical Company Limited, priority 2012, dated 2017).

This experiment deals with T1, human M1 receptor (hCHRM1) (Homo sapiens, UniProt P11229).
T1 construct: expressed in transfected cells; host or cells: CHO-K1
T1 sequence (P11229 1-460): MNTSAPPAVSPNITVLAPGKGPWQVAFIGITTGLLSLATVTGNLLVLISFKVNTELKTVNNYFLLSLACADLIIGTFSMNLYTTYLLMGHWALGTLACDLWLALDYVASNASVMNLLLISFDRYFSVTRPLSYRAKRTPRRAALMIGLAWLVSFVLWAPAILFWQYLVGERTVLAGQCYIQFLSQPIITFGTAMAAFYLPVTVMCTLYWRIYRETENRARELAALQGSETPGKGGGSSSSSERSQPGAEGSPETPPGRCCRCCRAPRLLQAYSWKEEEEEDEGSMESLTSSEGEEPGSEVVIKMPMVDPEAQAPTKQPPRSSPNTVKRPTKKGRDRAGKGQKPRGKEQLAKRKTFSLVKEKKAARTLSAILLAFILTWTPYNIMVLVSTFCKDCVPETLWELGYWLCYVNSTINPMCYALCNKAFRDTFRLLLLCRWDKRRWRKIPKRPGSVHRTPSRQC
The experiment can be described thus: Measurement of M1 receptor positive allosteric modulator (M1PAM) activity, calcium fluorescence (FLIPRtetra) in CHO-K1 cells in the presence of acetylcholine at EC20. The conditions noted are these: in the presence of acetylcholine at EC20 (final 0.6 nM), CHO-K1 cells expressing hCHRM1; for EC50: inflection point of M1PAM activity, read-out: IP value; for activity (%) at 10 μM: test compound 10 μM. Format: cell-based. The gist of the method:
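CHO-K1 cells expressing human M1 were loaded with Fluo-4 AM, and compound was added with acetylcholine at EC20 (final 0.6 nM). Calcium fluorescence was read on FLIPRtetra for 1 min. Activity was normalized to 1 μM acetylcholine (100%) and DMSO (0%), and the curve inflection point was reported as IP.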

SMILES strings stand for the structures.

For `Cc1cc(C)c(Oc2nccc3c2C(=O)N(Cc2ccc(-c4ccn(C)n4)cc2)C3)c(F)c1` [Example 414, 4-(2-fluoro-4,6-dimethylphenoxy)-2-(4-(1-methyl-1H-pyrazol-3-yl)benzyl)-1,2-dihydro-3H-pyrrolo[3,4-c]pyridin-3-one], the EC50 was found to be 69 nM and the “activity (%) at 10 μM” value is given as 103%.
For `Cc1cc(C)c(Oc2nccc3c2C(=O)N(Cc2ccc(-c4cnn(C)c4)cc2)C3)c(F)c1` [Example 415, 4-(2-fluoro-4,6-dimethylphenoxy)-2-(4-(1-methyl-1H-pyrazol-4-yl)benzyl)-1,2-dihydro-3H-pyrrolo[3,4-c]pyridin-3-one], the EC50 turned out to be 16 nM and the “activity (%) at 10 μM” value is 106%.
The like results for `Cn1ccc(-c2ccc(CN3Cc4ccnc(Oc5ccc(C(F)(F)F)cc5C#N)c4C3=O)cc2)n1` [Example 416, 2-((2-(4-(1-methyl-1H-pyrazol-3-yl)benzyl)-3-oxo-2,3-dihydro-1H-pyrrolo[3,4-c]pyridin-4-yl)oxy)-5-(trifluoromethyl)benzonitrile] were, in that order, 13 nM and 98%.
On the same counts, the results for `Cc1cc(C#N)cc(F)c1Oc1nccc2c1C(=O)N(Cc1ccc(-c3ccn(C)n3)cc1)C2` [Example 417, 3-fluoro-5-methyl-4-((2-(4-(1-methyl-1H-pyrazol-3-yl)benzyl)-3-oxo-2,3-dihydro-1H-pyrrolo[3,4-c]pyridin-4-yl)oxy)benzonitrile] are 16 nM and 96%.
In the case of `Cc1cn(-c2ccc(CN3Cc4ccnc(Oc5ccc(C(F)(F)F)cc5F)c4C3=O)cc2)cn1` [Example 418, 4-(2-fluoro-4-(trifluoromethyl)phenoxy)-2-(4-(4-methyl-1H-imidazol-1-yl)benzyl)-1,2-dihydro-3H-pyrrolo[3,4-c]pyridin-3-one], the EC50 is 9.1 nM and the “activity (%) at 10 μM” value is reported as 95%.
Take `Cn1cnc(-c2ccc(CN3Cc4ccnc(Oc5ccc(C(F)(F)F)cc5F)c4C3=O)cc2)c1` [Example 419, 4-(2-fluoro-4-(trifluoromethyl)phenoxy)-2-(4-(1-methyl-1H-imidazol-4-yl)benzyl)-1,2-dihydro-3H-pyrrolo[3,4-c]pyridin-3-one]: the EC50 stood at 7.3 nM and the “activity (%) at 10 μM” value stood at 102%.
On to `Cc1ccc(Oc2nccc3c2C(=O)N(Cc2ccc(-c4ccn(C)n4)cc2)C3)c(F)c1` [Example 420, 4-(2-fluoro-4-methylphenoxy)-2-(4-(1-methyl-1H-pyrazol-3-yl)benzyl)-1,2-dihydro-3H-pyrrolo[3,4-c]pyridin-3-one], for which the EC50 is 39 nM and the “activity (%) at 10 μM” value came out at 101%.
Consider `Cc1cc(C(F)(F)F)cc(F)c1Oc1nccc2c1C(=O)N(Cc1ccc(-c3ccn(C)n3)cc1)C2` [Example 421, 4-(2-fluoro-6-methyl-4-(trifluoromethyl)phenoxy)-2-(4-(1-methyl-1H-pyrazol-3-yl)benzyl)-1,2-dihydro-3H-pyrrolo[3,4-c]pyridin-3-one], for which the EC50 turned out to be 39 nM and the “activity (%) at 10 μM” value stood at 112%.
With `NC(=O)c1ccc(CN2Cc3ccnc(Oc4ccc(C(F)(F)F)cc4F)c3C2=O)cc1` [Example 422, 4-((4-(2-fluoro-4-(trifluoromethyl)phenoxy)-3-oxo-1,3-dihydro-2H-pyrrolo[3,4-c]pyridin-2-yl)methyl)benzamide], the EC50 was 12 nM and the “activity (%) at 10 μM” value was 107%.
The like results for `C[C@@H](O)[C@@H](C)Oc1nccc2c1C(=O)N(Cc1ccc(Cl)cc1)C2` [Example 423, 2-(4-chlorobenzyl)-4-(((2R,3R)-3-hydroxybutan-2-yl)oxy)-1,2-dihydro-3H-pyrrolo[3,4-c]pyridin-3-one] were, in that order, 90 nM and 96%.
The like results for `C[C@@H](O)[C@@H](C)Oc1nccc2c1C(=O)N(Cc1ccc(F)cc1F)C2` [Example 424, 2-(2,4-difluorobenzyl)-4-(((2R,3R)-3-hydroxybutan-2-yl)oxy)-1,2-dihydro-3H-pyrrolo[3,4-c]pyridin-3-one] were, in that order, 88 nM and 106%.
Regarding `C[C@@H](O)[C@@H](C)Oc1nccc2c1C(=O)N(Cc1c(F)cc(F)cc1F)C2` [Example 425, 4-(((2R,3R)-3-hydroxybutan-2-yl)oxy)-2-(2,4,6-trifluorobenzyl)-1,2-dihydro-3H-pyrrolo[3,4-c]pyridin-3-one], the EC50 worked out at 86 nM and the “activity (%) at 10 μM” value worked out at 102%.
On the same counts, the results for `C[C@@H](O)[C@@H](C)Oc1nccc2c1C(=O)N(Cc1ccc(-c3ccn(C)n3)cc1)C2` [Example 426, 4-(((2R,3R)-3-hydroxybutan-2-yl)oxy)-2-(4-(1-methyl-1H-pyrazol-3-yl)benzyl)-1,2-dihydro-3H-pyrrolo[3,4-c]pyridin-3-one] are 8.8 nM and 102%.
As for `Cc1ccc(Oc2nccc3c2C(=O)N(Cc2ccc(-n4cnc(C)c4)cc2)C3)c(F)c1` [Example 427, 4-(2-fluoro-4-methylphenoxy)-2-(4-(4-methyl-1H-imidazol-1-yl)benzyl)-1,2-dihydro-3H-pyrrolo[3,4-c]pyridin-3-one], the EC50 is 31 nM and the “activity (%) at 10 μM” value was found to be 111%.
Take `Cc1cc(F)c(Oc2nccc3c2C(=O)N(Cc2ccc(-n4cnc(C)c4)cc2)C3)c(F)c1` [Example 428, 4-(2,6-difluoro-4-methylphenoxy)-2-(4-(4-methyl-1H-imidazol-1-yl)benzyl)-1,2-dihydro-3H-pyrrolo[3,4-c]pyridin-3-one]: the EC50 was 14 nM and the “activity (%) at 10 μM” value was determined as 106%.
For `CCc1cc(F)c(Oc2nccc3c2C(=O)N(Cc2ccc(-n4cnc(C)c4)cc2)C3)c(F)c1` [Example 429, 4-(4-ethyl-2,6-difluorophenoxy)-2-(4-(4-methyl-1H-imidazol-1-yl)benzyl)-1,2-dihydro-3H-pyrrolo[3,4-c]pyridin-3-one], the EC50 was 11 nM and the “activity (%) at 10 μM” value was determined as 109%.
For `CCc1cc(F)c(Oc2nccc3c2C(=O)N(Cc2ccc(-c4ccn(C)n4)cc2)C3)c(F)c1` [Example 430, 4-(4-ethyl-2,6-difluorophenoxy)-2-(4-(1-methyl-1H-pyrazol-3-yl)benzyl)-1,2-dihydro-3H-pyrrolo[3,4-c]pyridin-3-one], the EC50 amounted to 17 nM and the “activity (%) at 10 μM” value stood at 110%.
On the same counts, the results for `CNC(=O)c1ccc(CN2Cc3ccnc(Oc4ccc(C(F)(F)F)cc4F)c3C2=O)cc1` [Example 431, 4-((4-(2-fluoro-4-(trifluoromethyl)phenoxy)-3-oxo-1,3-dihydro-2H-pyrrolo[3,4-c]pyridin-2-yl)methyl)-N-methylbenzamide] are 6.8 nM and 103%.
On to `CCNC(=O)c1ccc(CN2Cc3ccnc(Oc4ccc(C(F)(F)F)cc4F)c3C2=O)cc1` [Example 432, N-ethyl-4-((4-(2-fluoro-4-(trifluoromethyl)phenoxy)-3-oxo-1,3-dihydro-2H-pyrrolo[3,4-c]pyridin-2-yl)methyl)benzamide], for which the EC50 turned out to be 52 nM and the “activity (%) at 10 μM” value was determined as 92%.
The like results for `CNC(=O)c1ccc(CN2Cc3ccnc(Oc4ccc(C)cc4F)c3C2=O)cc1` [Example 433, 4-((4-(2-fluoro-4-methylphenoxy)-3-oxo-1,3-dihydro-2H-pyrrolo[3,4-c]pyridin-2-yl)methyl)-N-methylbenzamide] were, in that order, 10 nM and 101%.
On the same counts, the results for `CCNC(=O)c1ccc(CN2Cc3ccnc(Oc4ccc(C)cc4F)c3C2=O)cc1` [Example 434, N-ethyl-4-((4-(2-fluoro-4-methylphenoxy)-3-oxo-1,3-dihydro-2H-pyrrolo[3,4-c]pyridin-2-yl)methyl)benzamide] are 26 nM and 95%.
As to `CNC(=O)c1ccc(CN2Cc3ccnc(Oc4ccc(C(F)(F)F)cc4F)c3C2=O)cc1F` [Example 435, 2-fluoro-4-((4-(2-fluoro-4-(trifluoromethyl)phenoxy)-3-oxo-1,3-dihydro-2H-pyrrolo[3,4-c]pyridin-2-yl)methyl)-N-methylbenzamide], the EC50 was found to be 30 nM and the “activity (%) at 10 μM” value was found to be 102%.
`CCNC(=O)c1ccc(CN2Cc3ccnc(Oc4ccc(C(F)(F)F)cc4F)c3C2=O)cc1F` [Example 436, N-ethyl-2-fluoro-4-((4-(2-fluoro-4-(trifluoromethyl)phenoxy)-3-oxo-1,3-dihydro-2H-pyrrolo[3,4-c]pyridin-2-yl)methyl)benzamide]: the EC50 came to 41 nM and the “activity (%) at 10 μM” value stood at 106%.
On the same counts, the results for `CNC(=O)c1ccc(CN2Cc3ccnc(Oc4ccc(C)cc4F)c3C2=O)cc1F` [Example 437, 2-fluoro-4-((4-(2-fluoro-4-methylphenoxy)-3-oxo-1,3-dihydro-2H-pyrrolo[3,4-c]pyridin-2-yl)methyl)-N-methylbenzamide] are 78 nM and 98%.
